Source: ChEMBL document CHEMBL4354883, “Design, Synthesis, and Biological Evaluation of HSP90 Inhibitor-SN38 Conjugates for Targeted Drug Accumulation” (J Med Chem, 2020)
Activity calls are given as the source filed them. No cut-off for these calls is given here.

What was measured:
HCT-116 [1] = experiment: Antiproliferative activity against human HCT116 cells assessed as reduction in cell viability after 72 hrs by SRB assay; assay type: functional, cell-based; conditions: HCT-116, 72 h
A549 [2] = experiment: Antiproliferative activity against human A549 cells assessed as reduction in cell viability after 72 hrs by SRB assay; assay type: functional, cell-based; conditions: A549, 72 h
HCT-116 [3] = experiment: Induction of cell cycle arrest in human HCT116 cells at 3 nM after 24 hrs by RNase A/PI-staining based flow cytometric analysis; assay type: functional
A549 [4] = experiment: Induction of cell cycle arrest in human A549 cells at 3 to 10 nM after 24 hrs by RNase A/PI-staining based flow cytometric analysis; assay type: functional
CAPAN-1 [5] = experiment: Induction of cell cycle arrest in human Capan1 cells at 3 nM after 24 hrs by RNase A/PI-staining based flow cytometric analysis; assay type: functional
CAPAN-1 [6] = experiment: Antiproliferative activity against human Capan1 cells assessed as reduction in cell viability after 72 hrs by SRB assay; assay type: functional, cell-based; conditions: CAPAN-1, 72 h
[7] = Drug uptake in human A549 cells assessed as maximum emission peaks at 430 nm at 5 uM by fluorescence emission spectral analysis; assay type: ADME, cell-based; conditions: a549, 5 µM
[8] = Drug uptake in human A549 cells assessed as blue fluorescence at 5 uM after 12 hrs by confocal laser scanning microscopic analysis; assay type: ADME, cell-based; conditions: a549, 12 h
HCT-116 [9] = experiment: Downregulation of TOP1 expression in human HCT116 cells at 0.04 uM after 24 hrs by Western blot analysis; assay type: functional, cell-based
L02 = experiment: Cytotoxicity agains human HL7702 cells assessed as reduction in cell viability after 72 hrs by SRB assay; assay type: cell-based; conditions: L02, 72 h
MIA PaCa-2 = experiment: Antiproliferative activity against human MIAPaCa2 cells assessed as reduction in cell viability after 72 hrs by SRB assay; assay type: functional, cell-based; conditions: MIA PaCa-2, 72 h
A549 [10] = experiment: Downregulation of TOP1 expression in human A549 cells at 0.04 uM after 24 hrs by Western blot analysis; assay type: functional, cell-based
[11] = Drug uptake in human A549 cells assessed as blue shift in absorption spectrum at 5 uM by UV-visible absorption spectral analysis; assay type: ADME, cell-based; conditions: a549, 5 µM
[12] = Half life in human plasma at 25 uM by HPLC analysis; assay type: ADME, cell-free
[13] = Half life in mouse plasma at 25 uM by HPLC analysis; assay type: ADME, cell-free
[14] = Half life of compound in PBS buffer at pH 7.4 at 50 uM by HPLC analysis; assay type: physicochemical
[15] = target: Heat shock protein HSP 90-alpha (Homo sapiens, UniProt P07900); experiment: biochemical
Description: Inhibition of recombinant human full length HSP90 alpha expressed in Escherichia coli cells after 1 hr by fluorescence polarization assay

[16] = Half life of compound in PBS buffer at pH 6.0 at 50 uM by HPLC analysis; assay type: physicochemical
Heat shock protein HSP90 [17] = target: T1, Heat shock protein HSP90 (Homo sapiens, UniProt P07900+P08238); experiment: Inhibition of HSP90 in human A549 cells assessed as downregulation of AKT protein expression after 24 hrs by Western blot analysis; assay type: cell-based
[18] = Drug uptake in human A549 cells assessed as eHSP90-mediated total cellular drug internalization at 5 uM after 12 hrs by LC-MS/MS analysis; assay type: ADME, cell-based; conditions: a549, 12 h
[19] = AUC(0 to infinity) in BALB/c mouse at 50 mg/kg, iv after 5 to 24 hrs by LC-MS/MS analysis; assay type: ADME, organism-based; set-up: dose 50 mg/kg, route intravenous, time infinity; conditions: in vivo
[20] = Metabolic stability in human liver microsomes assessed as compound remaining at 1 uM preincubated for 5 mins followed by NADPH addition and measured after 60 mins by LC-MS/MS analysis; assay type: ADME, Microsome; conditions: read-out: Stability
A549 [21] = experiment: Ratio of prodrug release in human A549 cells assessed as increase in 7-ethyl-10-hydroxycamptothecin level at 5 uM after 12 hrs by LC-MS/MS analysis to prodrug release in human A549 cells assessed as increase in 7-ethyl-10-hydroxycamptothecin level at 5 uM after 1 hr by LC-MS/MS analysis; assay type: ADME, cell-based; conditions: a549, 5 µM
[22] = Drug uptake in human A549 cells assessed as endocytosis-mediated total cellular drug internalization at 5 uM after 12 hrs by LC-MS/MS analysis relative to SN38; assay type: ADME, cell-based; conditions: a549, 12 h
A549 [23] = experiment: Downregulation of TOP1 expression in human A549 cells after 24 hrs by Western blot analysis; assay type: functional, cell-based
[24] = target: T2, DNA topoisomerase 1 (Homo sapiens) (UniProt P11387); experiment: Inhibition of topoisomerase 1 in human HCT116 cells assessed as increase in phosphorylated KAP1 expression after 24 hrs by Western blot analysis; assay type: cell-based
T2 sequence (whole entry): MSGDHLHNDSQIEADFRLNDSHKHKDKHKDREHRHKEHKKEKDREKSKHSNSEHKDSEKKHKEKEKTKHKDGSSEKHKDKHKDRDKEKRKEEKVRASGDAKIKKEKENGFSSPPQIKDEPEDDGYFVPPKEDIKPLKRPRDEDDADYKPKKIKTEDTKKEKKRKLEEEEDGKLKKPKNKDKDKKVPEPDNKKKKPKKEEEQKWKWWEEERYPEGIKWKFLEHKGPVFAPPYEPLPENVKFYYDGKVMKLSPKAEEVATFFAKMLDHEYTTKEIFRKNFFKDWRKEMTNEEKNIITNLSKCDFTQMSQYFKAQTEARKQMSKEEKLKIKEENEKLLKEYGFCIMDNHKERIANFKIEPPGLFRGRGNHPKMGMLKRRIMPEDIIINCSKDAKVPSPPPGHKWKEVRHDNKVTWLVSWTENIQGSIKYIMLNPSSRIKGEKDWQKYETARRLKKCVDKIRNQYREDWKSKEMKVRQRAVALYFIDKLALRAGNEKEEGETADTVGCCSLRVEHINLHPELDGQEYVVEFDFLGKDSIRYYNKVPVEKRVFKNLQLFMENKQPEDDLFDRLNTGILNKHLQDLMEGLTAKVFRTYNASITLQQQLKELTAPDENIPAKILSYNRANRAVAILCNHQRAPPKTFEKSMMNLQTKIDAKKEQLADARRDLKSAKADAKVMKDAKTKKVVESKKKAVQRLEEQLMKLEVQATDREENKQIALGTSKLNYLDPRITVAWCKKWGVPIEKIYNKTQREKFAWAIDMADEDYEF

CAPAN-1 [25] = experiment: Induction of cell cycle arrest in human Capan1 cells assessed as accumulation at G2/M phase after 24 hrs by RNase A/PI-staining based flow cytometric analysis; assay type: functional
Heat shock protein HSP90 [26] = target: T1, Heat shock protein HSP90; experiment: Inhibition of HSP90 in human HCT116 cells assessed as upregulation of HSP70 expression at 0.04 to 5 uM after 24 hrs by Western blot analysis; assay type: cell-based
Heat shock protein HSP90 [27] = target: T1, Heat shock protein HSP90; experiment: Inhibition of HSP90 in human HCT116 cells assessed as downregulation of AKT protein expression after 24 hrs by Western blot analysis; assay type: cell-based
[28] = Clearance in BALB/c mouse at 50 mg/kg, iv after 5 to 24 hrs by LC-MS/MS analysis; assay type: ADME, organism-based; conditions: in vivo
Heat shock protein HSP90 [29] = target: T1, Heat shock protein HSP90; experiment: Drug uptake in human A549 cells assessed as eHSP90-mediated drug internalization by measuring blue fluorescence in PBS solution at 5 uM after 1 to 12 hrs by confocal laser scanning microscopic analysis; assay type: ADME, cell-based; conditions: a549, 5 µM, TDE = time-dependent effect
A549 [30] = experiment: Induction of cell cycle arrest in human A549 cells assessed as accumulation at G2/M phase after 24 hrs by RNase A/PI-staining based flow cytometric analysis; assay type: functional
HCT-116 [31] = experiment: Induction of cell cycle arrest in human HCT116 cells assessed as accumulation at G2/M phase after 24 hrs by RNase A/PI-staining based flow cytometric analysis; assay type: functional
[32] = Half life in BALB/c mouse at 50 mg/kg, iv after 5 to 24 hrs by LC-MS/MS analysis; assay type: ADME, organism-based; conditions: in vivo
Heat shock protein HSP90 [33] = target: T1, Heat shock protein HSP90; experiment: Inhibition of HSP90 in human A549 cells assessed as upregulation of HSP70 expression at 0.04 to 5 uM after 24 hrs by Western blot analysis; assay type: cell-based
[34] = Apparent volume of distribution at steady state in BALB/c mouse at 50 mg/kg, iv after 5 to 24 hrs by LC-MS/MS analysis; assay type: ADME, organism-based; conditions: in vivo, read-out: Vdss(app)
[35] = target: T2, DNA topoisomerase 1 (Homo sapiens); experiment: Inhibition of topoisomerase 1 in human A549 cells assessed as increase in phosphorylated KAP1 expression after 24 hrs by Western blot analysis; assay type: cell-based
[36] = Intrinsic clearance in human liver microsomes at 1 uM preincubated for 5 mins followed by NADPH addition and measured up to 360 mins by LC-MS/MS analysis; assay type: ADME, Microsome; conditions: 6 h
[37] = Half life in human liver microsomes at 1 uM preincubated for 5 mins followed by NADPH addition and measured up to 360 mins by LC-MS/MS analysis; assay type: ADME, Microsome
HCT-116 [38] = experiment: Downregulation of TOP1 expression in human HCT116 cells after 24 hrs by Western blot analysis; assay type: functional, cell-based
[39] = Toxicity in mouse xenografted with human HCT116 cells assessed as body weight loss at 50 mg/kg, iv for 5 consecutive days per week and measured every 3 to 4 days up to 14 days relative to control; assay type: organism-based; conditions: in vivo
[40] = Drug uptake in human A549 cells assessed as endocytosis-mediated total cellular drug internalization at 5 uM after 12 hrs by LC-MS/MS analysis relative to irinotecan; assay type: ADME, cell-based; conditions: a549, 12 h

CCc1c2c(nc3ccc(O)cc13)-c1cc3c(c(=O)n1C2)COC(=O)[C@]3(O)CC [7-ETHYL-10-HYDROXYCAMPTOTHECIN]
IC50 (HCT-116 [1]): 4 nM
IC50 (A549 [2]): 11 nM
Activity (HCT-116 [3]): Active
Activity (A549 [4]): Active
Activity (CAPAN-1 [5]): Active
IC50 (CAPAN-1 [6]): 8 nM
Drug uptake [7]: Active
Drug uptake [8]: Active
inhibition (HCT-116 [9]): Active
IC50 (L02): 18 nM
IC50 (MIA PaCa-2): 13 nM
inhibition (A549 [10]): Active
Drug uptake [11]: Active

CCc1c2c(nc3ccc(O)cc13)-c1cc3c(c(=O)n1C2)COC(=O)[C@@]3(CC)OC(=O)CCNC(=O)CNc1cc(-n2nc(C(F)(F)F)c3c2CC(C)(C)CC3=O)ccc1C(N)=O
half-life at 25 µM [12]: > 24 h
half-life at 25 µM [13]: 17 h
half-life at 50 µM [14]: 12 h
IC50 [15]: 1700 nM
half-life at 50 µM [16]: > 24 h

CCc1c2c(nc3ccc(O)cc13)-c1cc3c(c(=O)n1C2)COC(=O)[C@@]3(CC)OC(=O)CCNC(=O)c1noc(-c2cc(C(C)C)c(O)cc2O)c1-c1ccc(CN2CCOCC2)cc1
inhibition (Heat shock protein HSP90 [17]): Dose-dependent effect
Drug uptake [18]: Active
AUC(0-inf) [19]: 151 µg·h/mL
remaining at 1 h, 1 µM [20]: 75%
Ratio (A549 [21]): 4.3
half-life at 25 µM [12]: > 24 h
half-life at 25 µM [13]: 17 h
fold change (FC) [22]: 1.6 to 1.9
half-life at 50 µM [14]: 14 h
TOP1 downregulation (A549 [23]): Dose-dependent effect
IC50 (HCT-116 [1]): 83 nM
inhibition [24]: Dose-dependent effect
Activity (CAPAN-1 [25]): Dose-dependent effect
IC50 (A549 [2]): 324 nM
inhibition (Heat shock protein HSP90 [26]): Active
inhibition (Heat shock protein HSP90 [27]): Dose-dependent effect
clearance [28]: 5.51 mL/min/kg
Drug uptake (Heat shock protein HSP90 [29]): Tde
IC50 [15]: 70 nM
Activity (A549 [30]): Dose-dependent effect
Activity (HCT-116 [31]): Dose-dependent effect
half-life [32]: 1.51 h
inhibition (Heat shock protein HSP90 [33]): Active
IC50 (CAPAN-1 [6]): 206 nM
Drug uptake [7]: Active
Vd [34]: 0.1 L/kg
inhibition [35]: Dose-dependent effect
Drug uptake [8]: Active
CLH [36]: 5.3 mL/min/kg
IC50 (L02): 7890 nM
IC50 (MIA PaCa-2): 205 nM
half-life at 50 µM [16]: > 24 h
half-life at 1 µM [37]: 2.4 h
Drug uptake [11]: Active
inhibition (HCT-116 [38]): Dose-dependent effect
Activity [39]: < 20%
fold change (FC) [40]: 2.8 to 3.8
